This passage reports GI50 and TGI results from PubChem BioAssay (NCI).

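Compound exposure: 48 hours, 5 concentrations, 96-well plates. GI50 is the concentration that inhibits growth by half. TGI: total growth inhibition.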

Among the test systems are SNB-19 CNS; SW-620 colon; SK-MEL-2 melanoma; SF-539 CNS; OVCAR-8 ovarian; A498 renal; OVCAR-3 ovarian; MCF7 breast; NCI-H23 lung; RXF 393 renal.
Common to all, as to test: inhibition of tumour cell growth, NCI panel, 48 h

For `CCOc1cc(Cl)c(C(C)NC(=O)c2cccc(OC)c2)cc1OCC` (stereo not given), the GI50 is 12.6 µM with SNB-19 CNS; 4 µM with SW-620 colon; 4.67 µM in the test with SK-MEL-2 melanoma; 5.01 µM in the test on SF-539 CNS; 25.7 µM in the test on OVCAR-8 ovarian; 0.561 µM in the test with A498 renal. Moreover, the GI50 in the test with OVCAR-3 ovarian is 4.19 µM; in the test on MCF7 breast, 4.6 µM; in the test on NCI-H23 lung it was 21.7 µM; in the test with RXF 393 renal it was 9.21 µM. Further, the TGI is more than 100 µM with SNB-19 CNS; more than 100 µM in the test with SW-620 colon; more than 100 µM in the test with SK-MEL-2 melanoma; 34.3 µM with SF-539 CNS; more than 100 µM in the test with OVCAR-8 ovarian; 21.9 µM in the test on A498 renal. The TGI in the test on OVCAR-3 ovarian was 29.4 µM; in the test on MCF7 breast, more than 100 µM; in the test with NCI-H23 lung it was more than 100 µM; with RXF 393 renal, 63 µM.

As to `CC(=O)OC(COc1ccc2c(c1)[n+]([O-])nc(N)[n+]2[O-])CN1CCCCC1` (stereo not given), the TGI was more than 100 µM in the test with SNB-19 CNS; more than 100 µM in the test on SW-620 colon; 26.4 µM in the test on SK-MEL-2 melanoma; 39 µM in the test with SF-539 CNS; 41 µM in the test with OVCAR-8 ovarian; 16.5 µM in the test on A498 renal. The TGI with OVCAR-3 ovarian was 38 µM; in the test with MCF7 breast it was 65.8 µM; in the test with NCI-H23 lung, 47.9 µM; in the test on RXF 393 renal it was more than 100 µM.

Regarding `Cc1cc(O)ccc1C1(c2ccc(O)cc2C)OC(=O)c2ccccc21`, the GI50 with SNB-19 CNS is 18.7 µM; in the test on SW-620 colon, 16.9 µM; in the test on SK-MEL-2 melanoma, 18.4 µM; in the test with SF-539 CNS, 17.4 µM; with OVCAR-8 ovarian, 23.3 µM; with A498 renal it was 17.7 µM. Also, the GI50 is 16.4 µM in the test on OVCAR-3 ovarian, 18.1 µM with MCF7 breast, 16.6 µM in the test on NCI-H23 lung and 18.5 µM in the test with RXF 393 renal. For the same compound, the TGI in the test with SNB-19 CNS was determined as 35.2 µM; with SW-620 colon, 35.8 µM; with SK-MEL-2 melanoma it was 33.8 µM; in the test with SF-539 CNS, 33.5 µM; with OVCAR-8 ovarian, 46.5 µM; with A498 renal it was 33.3 µM. Moreover, the TGI in the test with OVCAR-3 ovarian came to 30.1 µM; in the test on MCF7 breast, 36.5 µM; in the test with NCI-H23 lung, 33.4 µM; with RXF 393 renal, 33.9 µM.

With `CC(C)n1cc(-c2ccc3c(c2)N(C)CC3)c2c(NS(=O)(=O)c3ccn(C)n3)ccnc21`, the GI50 with SNB-19 CNS was more than 100 µM; in the test with SW-620 colon, 69.7 µM; in the test with SK-MEL-2 melanoma, 56.6 µM; in the test with SF-539 CNS it was 64.4 µM; in the test with OVCAR-8 ovarian, 72.7 µM; in the test with A498 renal it was 36.3 µM. The GI50 in the test on OVCAR-3 ovarian was 60.4 µM; with MCF7 breast, 31.5 µM; in the test with NCI-H23 lung, 74.6 µM; in the test with RXF 393 renal, 29.1 µM. Moreover, the TGI in the test on SNB-19 CNS, in the test on SW-620 colon, with SK-MEL-2 melanoma, in the test with SF-539 CNS, with OVCAR-8 ovarian and in the test on A498 renal was more than 100 µM each time. The TGI in the test with OVCAR-3 ovarian, in the test with MCF7 breast, in the test on NCI-H23 lung and in the test on RXF 393 renal was more than 100 µM each time.

With `O=C(Cc1cc(O)ccc1O)NO`, the GI50 in the test with SNB-19 CNS was 31.2 µM; with SW-620 colon it was 25.1 µM; with SK-MEL-2 melanoma, more than 100 µM; in the test on SF-539 CNS it was more than 100 µM; in the test on OVCAR-8 ovarian, more than 100 µM; in the test with A498 renal it was more than 100 µM. Besides, the GI50 was 16.9 µM in the test on OVCAR-3 ovarian, 16.5 µM in the test on MCF7 breast, more than 100 µM in the test on NCI-H23 lung and 71.7 µM with RXF 393 renal. Also, the TGI in the test with SNB-19 CNS is more than 100 µM; in the test with SW-620 colon, 54.1 µM; with SK-MEL-2 melanoma it was more than 100 µM; with SF-539 CNS, more than 100 µM; in the test with OVCAR-8 ovarian it was more than 100 µM; in the test on A498 renal it was more than 100 µM. Moreover, the TGI with OVCAR-3 ovarian is 33.3 µM; in the test on MCF7 breast it was 34.9 µM; in the test with NCI-H23 lung, more than 100 µM; in the test with RXF 393 renal it was more than 100 µM.

For the compound `COc1ccc(C2=C(c3ccccc3)C(=O)N3CCCC3C2)cc1` (stereo not given), the GI50 was 8.01 µM in the test on SNB-19 CNS; 1.24 µM in the test on SW-620 colon; 23.8 µM in the test on SK-MEL-2 melanoma; 3.11 µM in the test on SF-539 CNS; 9.42 µM in the test with OVCAR-8 ovarian; more than 100 µM in the test on A498 renal. Further, the GI50 in the test with OVCAR-3 ovarian was 57 µM; with MCF7 breast, 2.98 µM; in the test on NCI-H23 lung, more than 32.3 µM; with RXF 393 renal, 25.5 µM. Also, the TGI with SNB-19 CNS was more than 100 µM; in the test on SW-620 colon, more than 100 µM; in the test with SK-MEL-2 melanoma, more than 100 µM; in the test with SF-539 CNS, 98.2 µM; in the test on OVCAR-8 ovarian, more than 100 µM; in the test with A498 renal it was more than 100 µM. The TGI in the test on OVCAR-3 ovarian, with MCF7 breast, in the test with NCI-H23 lung and in the test on RXF 393 renal was more than 100 µM each time.

Regarding `COc1cc2c(Nc3ccc(-c4ccc(N)cc4)cc3)ncnc2c(OC)c1OC`, the GI50 with SNB-19 CNS is 7.76 µM; with SW-620 colon, 0.733 µM; in the test on SK-MEL-2 melanoma, 4.96 µM; in the test with SF-539 CNS, 2.42 µM; in the test on OVCAR-8 ovarian, 5.46 µM; with A498 renal, 15.1 µM. Also, the GI50 in the test on OVCAR-3 ovarian is 6.43 µM; with MCF7 breast, 3.54 µM; in the test with NCI-H23 lung, 19.5 µM; in the test on RXF 393 renal, 24.9 µM. Also, the TGI with SNB-19 CNS was more than 100 µM; in the test on SW-620 colon, more than 100 µM; with SK-MEL-2 melanoma, more than 78.1 µM; in the test on SF-539 CNS it was more than 28.7 µM; with OVCAR-8 ovarian it was 56.9 µM; in the test on A498 renal it was 56 µM. Besides, the TGI is more than 59.3 µM with OVCAR-3 ovarian, more than 100 µM in the test with MCF7 breast, more than 100 µM in the test on NCI-H23 lung and more than 95.9 µM with RXF 393 renal.

On to `CNC(=O)/C=C/C1=CN2C(=O)c3ccc(C)c(O)c3NC(OC)C2C1` (stereo not given), for which the TGI with SNB-19 CNS was 27.6 µM; with SW-620 colon, 24.4 µM; with SK-MEL-2 melanoma, less than 0.01 µM; in the test with SF-539 CNS it was less than 0.0176 µM; in the test with OVCAR-8 ovarian, 0.192 µM; with A498 renal it was 0.713 µM. In addition, the TGI in the test on OVCAR-3 ovarian was 0.417 µM; in the test with MCF7 breast, 16.6 µM; with NCI-H23 lung, less than 0.0177 µM; with RXF 393 renal, less than 0.01 µM.
